Columns and labels:
[1] = system: 293 ATXN3/Q75-GFP cells; assay: ATXN3/Q75 aggregation assay, high-content analysis; format: cell-based, human
Protocol: Glycyrrhizin is metabolized to 18β-glycyrrhetinic acid by intestinal bacteria. Therefore, ATXN3/Q75 aggregation assay was further performed with different concentrations of the 18β-glycyrrhetinic acid (0.1˜10 μM) and SAHA (0.1 μM) by the aforementioned method, aggregation percentage was assessed by HCA system.

[2] = system: HEK-293 cells; assay: IC50 cytotoxicity (MTT cell proliferation) / effective dose ratio
Protocol: H.; Kung, P. J.; Lin, T. H.; Wu, Y. C.; Wu, Y. R.; Chen, Y. C.; Lee-Chen, G. J.; Chen, C. […] Cell proliferation was measured based upon the reduction of 3-(4,5-dimethylthiazol-2-yl]-2,5-diphenyltetrazolium bromide (MTT). Briefly, 5×10^4 cells were plated into 48-well dishes, grown for 20 hr and treated with herbal extract (5˜30 mg/mL G. inflata or C. longa) or pure compound (100 nM˜1 mM AMGZ or licochalcone A). After one day, 20 μL MTT (5 mg/mL in PBS, Sigma) was added to cells and incubated for 2 hr. The absorbance of the insoluble purple formazan product was measured at 570 nm by a Bio-Tek μQuant Universal Microplate Spectrophotometer.
Then doxycycline (10 μg/mL, BD) and oxaliplatin (5 μM, Sigma) were added for 6 days.

[3] = system: SH-SY5Y ATXN3/Q75-GFP cells; assay: ATXN3/Q75 aggregation assay in retinoic acid differentiated neuronal cells; format: cell-based, human; details: one week
Protocol: SH-SY5Y ATXN3/Q75-GFP cells were seeded in 6-well (2×10^5/well) plate, with all trans retinoic acid (10 μM, Sigma) added at seeding time. At day 2, cells were treated with G. inflata or C. longa extract (10 μg/mL), AMGZ (0.2 μM) or licochalcone A (2 nM) for 8 hr, and then doxycycline (5 μg/mL) was added to induce ATXN3/Q75-GFP expression. After one week, cells were stained with Hoechst 33342 and aggregation percentage was assessed as described. The morphologic differentiation of untreated cells including total outgrowth, processes, and branches was assessed by using HCA system.

[4] = DPPH free radical scavenging assay; format: biochemical; details: 100 μM DPPH; for EC50: 30 min, room temperature
Protocol: The free radical scavenging activities of tested compounds and herbal extracts were determined using the stable 1,1-diphenyl-2-picrylhydrazyl (DPPH, Sigma) free radical assay (see Li, N.; Liu, J. H.; Zhang, J.; Yu, B. Y. Comparative evaluation of cytotoxicity and antioxidative activity of 20 flavonoids. Journal of Agricultural and Food Chemistry 56:3876-3883; 2008) with some modifications. Briefly, radical scavenging activity was measured in an ethanol mixture containing 100 μM DPPH radical solution and tested compounds (10˜200 μM) or herbal extracts (0.2˜4 mg/mL) The mixture was vortexed for 15 sec and then left to stand at room temperature for 30 min. Then, the scavenging capacity was measured by monitoring the decrease in absorbance at 517 nm by a Thermo Scientific Multiskan GO Microplate Spectrophotometer. The radical scavenging activity was calculated using the formula: 1−(absorbance of sample/absorbance of control)×100%. The antioxidative activity expressed as EC50 was defined as the concentration of the compounds required for inhibition of the formation of DPPH radicals by 50%.

**Q.** For `CC1(C)[C@@H](O)CC[C@]2(C)[C@H]3C(=O)C=C4[C@@H]5C[C@@](C)(C(=O)O)CC[C@]5(C)CC[C@@]4(C)[C@]3(C)CC[C@@H]12` [18β-glycyrrhetinic acid], which “ATXN3/Q75 aggregation as compared to untreated cells” value ([1]; 10 μM) is on record?
**A.** 81%

**Q.** Which results are given for `CC1(C)[C@@H](O[C@H]2O[C@H](C(=O)O)[C@@H](O)[C@H](O)[C@H]2O[C@@H]2O[C@H](C(=O)O)[C@@H](O)[C@H](O)[C@H]2O)CC[C@]2(C)[C@H]3C(=O)C=C4[C@@H]5C[C@@](C)(C(=O)O)CC[C@]5(C)CC[C@@]4(C)[C@]3(C)CC[C@@H]12` [AMGZ, ammonium glycyrrhizinate]?
**A.** IC50 cytotoxicity/effective dose ratio ([2]; effective = reduced the ATXN3/Q75 aggregation to 85% or lower): > 10000; aggregation reduction in ATXN3/Q75 expressed neuronal cells ([3]; 0.2 μM): 9%; DPPH scavenging activity ([4]; tested compounds 10˜200 μM): no detectable DPPH scavenging activity

**Q.** Which EC50 [4] does the source give for `O=c1c(O)c(-c2ccc(O)cc2)oc2cc(O)cc(O)c12` [Kaempferol, reference compound] here?
**A.** 27 µM

**Q.** For `O=C(CCCCCCC(=O)Nc1ccccc1)NO` [SAHA, suberoylanilide hydroxamic acid, reference compound], which “ATXN3/Q75 aggregation as compared to untreated cells” value ([1]; 100 nM, 8 hr pretreatment, then doxycycline and oxaliplatin 6 days) is on record?
**A.** 85%

**Q.** Which “IC50 cytotoxicity/effective dose ratio” value ([2]; human, 1 day) does the source give for `C=CC(C)(C)c1cc(/C=C/C(=O)c2ccc(O)cc2)c(OC)cc1O` [licochalcone A] here?
**A.** 3×10^5

**Q.** What about the “aggregation reduction in ATXN3/Q75 expressed neuronal cells” value ([3]; 2 nM) of the same compound?
**A.** 10%

**Q.** And the EC50 [4]?
**A.** 121 µM

Reference: patent US9770478B2, “Method for inhibiting neuronal cell aggregation” (NATIONAL TAIWAN NORMAL UNIVERSITY, priority 2014, dated 2017)
